According to US20240317686A1, “RORyT MODULATOR, AND PREPARATION METHOD THEREFOR AND APPLICATION THEREOF” (SHANGHAI PHARMACEUTICALS HOLDING CO., LTD., priority 2020, published 2024):

Target: T1, RORγt (Homo sapiens, UniProt P51449)
T1 construct: Prepare 4×RORgt-LBD in 1× buffer
T1 sequence (P51449 269-508 limits assumed): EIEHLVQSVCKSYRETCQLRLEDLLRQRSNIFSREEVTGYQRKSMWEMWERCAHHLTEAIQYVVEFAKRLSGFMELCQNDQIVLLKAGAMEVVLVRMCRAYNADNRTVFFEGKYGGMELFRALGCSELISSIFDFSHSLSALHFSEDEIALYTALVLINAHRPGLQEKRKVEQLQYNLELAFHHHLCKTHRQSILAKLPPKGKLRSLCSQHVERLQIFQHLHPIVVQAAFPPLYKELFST
Experiment: Fluorescence resonance energy transfer (FRET) assay of inhibitory activity on RORγt
Assay type: biochemical
Conditions: RORgt-LBD GST with SRC peptide
Procedure: Fluorescence resonance energy transfer (FRET) experiment was performed to assay the inhibitory activity of the compound of the present invention on RORγt.
1) Preparation of DMSO stock solutions of the compounds: All compounds were dissolved in DMSO to prepare 10 mM stock solutions.
2) Compound storage: After the compound was dissolved in DMSO, the solution can be stored in a desiccator at room temperature for three months. For long-term storage, the solution should be put in a −20° C. refrigerator.
3) Preparation of working solution: • a) Positive control compound AZD0284: Starting from 500 µM, the solution was diluted serially by 3-folds with DMSO to obtain a 10-concentration gradient, each concentration with 3 replicate wells. 2 wells were pipetted. The gradiently diluted compound was diluted in a reaction buffer to obtain a 4× working solution (starting from 40 μM, diluted gradiently by 3-folds) of the positive control compound. • b) Compounds to be tested: Starting from 500 μM, the solution was diluted serially by 3-folds with DMSO to obtain a 10-concentration gradient, each concentration with 3 replicate wells. 2 wells were pipetted. The gradiently diluted compound was diluted in a reaction buffer to obtain a 4× working solution ([…], diluted gradiently by 3-folds) of the compounds to be tested. • c) Prepare a 4× negative control (8% DMSO). • d) Centrifuge the plate at 1000 rpm for 1 min.
1) Prepare 4× serially diluted compounds in 1× buffer.
2) Add 5 μl of the 4× serially diluted compound (prepared in step 1) to a 384 assay plate (784075, Greiner).
3) Prepare 4×RORgt-LBD in 1× buffer.
4) Add 5 μl of the 4×RORgt-LBD (prepared in step 3) to the 384 assay plate (prepared in step 2).
5) Incubate the assay plate for 15 min at room temperature, protected from light.
6) Prepare a 2× mixture of SRC, anti-GST Eu and streptavidin-d2 in 1× […].
7) Add 10 μl of the 2× mixture (prepared in step 6) to the 384 assay plate (prepared in step 4).
8) Centrifuge the 384 assay plates at 1000 g for 1 min.
9) Incubate for 3 h at room temperature, protected from light.
10) Read the plate at wavelengths of 665 nm and 615 nm on an Envision 2104 plate reader.
Relative ratio (RR): Calculate the relative ratio (response value at 665 nm/response value at 615 nm-response value in blank background) of each well.
Inhibition rate %=[1−(fluorescence detection value of the compound−fluorescence detection average of the positive compound)/(fluorescence detection average of the negative control−fluorescence detection average of the positive compound)]×100
Calculate the IC50 and dose-response curve of the compound: The IC50 and dose-response curve of the compound were obtained via Graphpad 8.0 by calculating the inhibition rate of the compound and the log value of the compound concentration.

Row | IC50 | Compound
1 | 10 to 50 nM | CCn1cc(C(C)(C)C(=O)c2ccc(NC(=O)Cc3ccc(S(=O)(=O)CC)cc3)cn2)cn1 [Compound I-42, N-(6-(2-(1-ethyl-1H-pyrazol-4-yl)-2-methylpropionyl)pyridin-3-yl)-2-(4-(ethylsulfonyl)phenyl) acetamide]
2 | 10 to 50 nM | CCS(=O)(=O)c1ccc(CC(=O)Nc2ccc(C(=O)C(C)(C)c3ccccn3)nc2)cc1 [Compound I-20, 2-(4-(ethylsulfonyl)phenyl)-N-(6-(2-methyl-2-(pyridin-2-yl)propanoyl)pyridin-3-yl)acetamide]
3 | 100 to 1000 nM | CCS(=O)(=O)c1ccc(CC(=O)Nc2ccc(C(=O)C3(c4ccc(F)cn4)CC3)nc2)cc1 [Compound I-68, 2-(4-(ethylsulfonyl)phenyl)-N-(6-(1-(5-fluoropyridin-2-yl)cyclopropane-1-carbonyl)pyridin-3-yl)acetamide]
4 | 1 to 10 nM | CCS(=O)(=O)c1ccc(CC(=O)Nc2ccc(C(=O)C(C)(C)c3cccc(F)n3)nc2)cc1 [Compound I-61]
5 | 1 to 10 nM | CCS(=O)(=O)c1ccc(CC(=O)Nc2ccc(C(=O)C(C)(C)c3ccc(C(F)(F)F)cc3)nc2)cc1 [Compound I-13]
6 | 1 to 10 nM | CCS(=O)(=O)c1ccc(CC(=O)Nc2ccc(C(=O)C(C)(C)c3cccc(Cl)c3)nc2)cc1 [Compound I-1, N-[6-[2-(3-chlorophenyl)-2-methyl-propionyl]-3-pyridyl]-2-(4-ethylsulfonylphenyl)acetamide]
7 | 10 to 50 nM | [2H]C([2H])([2H])n1cc(C(C)(C)C(=O)c2ccc(NC(=O)Cc3ccc(S(=O)(=O)CC)cc3)cn2)cn1 [Compound I-43, 2-(4-(ethylsulfonyl)phenyl)-N-(6-(2-methyl-2-(1-(methyl-D3)-1H-pyrazol-4-yl)propionyl)pyridin-3-yl)acetamide]
8 | 10 to 50 nM | CCS(=O)(=O)c1ccc(CC(=O)Nc2ccc(C(=O)C(C)(C)c3nccs3)nc2)cc1 [Compound I-36]
9 | 1 to 10 nM | CCS(=O)(=O)c1ccc(CC(=O)Nc2ccc(C(=O)C(C)(C)c3cccc(C)n3)nc2)cc1 [Compound I-57]
10 | 100 to 1000 nM | CCS(=O)(=O)c1ccc(CC(=O)Nc2ccc(C(=O)C(C)(C)c3cnn(CC(F)F)c3)nc2)cc1 [Compound I-34]
11 | 100 to 1000 nM | CN(C)S(=O)(=O)c1ccc(CC(=O)Nc2ccc(C(=O)C3(c4ccc(F)cc4)CC(F)(F)C3)nc2)cc1 [Compound I-67]
12 | 1 to 10 nM | CCS(=O)(=O)c1ccc(CC(=O)Nc2ccc(C(=O)C(C)(C)c3cccc(C#N)c3)nc2)cc1 [Compound I-9, N-[6-[2-(3-cyanophenyl)-2-methylpropionyl]-3-pyridyl]-2-(4-ethylsulfonylphenyl)acetamide]
13 | 10 to 50 nM | CCS(=O)(=O)c1ccc(CC(=O)Nc2ccc(C(=O)C(C)(C)c3ccc(Cl)cc3)nc2)nc1 [Compound I-24, N-(6-(2-(4-chlorophenyl)-2-methylpropionyl)pyridin-3-yl)-2-(5-(ethylsulfonyl)pyridin-2-yl)acetamide]
14 | 100 to 1000 nM | CCS(=O)(=O)c1ccc(CC(=O)Nc2ccc(C(=O)C(C)(C)c3cnc(C)nc3)nc2)cc1 [Compound I-55]
15 | 50 to 100 nM | CCS(=O)(=O)c1ccc(CC(=O)Nc2ccc(C(=O)C(C)(C)c3ccccn3)cn2)cc1 [Compound I-71, 2-(4-(ethylsulfonyl)phenyl)-N-(5-(2-methyl-2-(pyridin-2-yl)propionyl)pyridin-2-yl)acetamide]
16 | 100 to 1000 nM | CCS(=O)(=O)c1ccc(CC(=O)Nc2ccc(C(=O)C3(c4ccccn4)CC3)nc2)cc1 [Compound I-45, 2-(4-(ethylsulfonyl)phenyl)-N-(6-(1-(pyridin-2-yl)cyclopropane-1-carbonyl)pyridin-3-yl)acetamide]

Row | IC50 | Compound
17 | 1 to 10 nM | CCS(=O)(=O)c1ccc(CC(=O)Nc2ccc(C(=O)C(C)(C)c3ccc(Br)cc3)nc2)cc1 [Compound I-5]
18 | 10 to 50 nM | CCS(=O)(=O)c1ccc(CC(=O)Nc2ccc(C(=O)C(C)(C)c3ncc(C)cn3)nc2)cc1 [Compound I-59, 2-(4-(ethylsulfonyl)phenyl)-N-(6-(2-methyl-2-(5-methylpyrimidin-2-yl)propionyl)pyridin-3-yl) acetamide]
19 | 1 to 10 nM | CCS(=O)(=O)c1ccc(CC(=O)Nc2ccc(C(=O)C(C)(C)c3cccc(C#N)n3)nc2)cc1 [Compound I-65]
20 | 50 to 100 nM | CCS(=O)(=O)c1ccc(CC(=O)Nc2ccc(C(=O)C(C)(C)c3cn(C)cn3)nc2)cc1 [Compound I-72, 2-(4-(ethylsulfonyl)phenyl)-N-(6-(2-methyl-2-(1-methyl-1H-imidazol-4-yl)propionyl)pyridin-3-yl)acetamide]
21 | 1 to 10 nM | CCS(=O)(=O)c1ccc(CC(=O)Nc2ccc(C(=O)C(C)(C)c3ccc(C)cn3)nc2)cc1 [Compound I-30]
22 | 10 to 50 nM | CNS(=O)(=O)c1ccc(CC(=O)Nc2ccc(C(=O)C(C)(C)c3ccccn3)nc2)cc1 [Compound I-63, N-(6-(2-methyl-2-(pyridin-2-yl)propionyl)pyridin-3-yl)-2-(4-(N-methylsulfamoyl)phenyl)acetamide]
23 | 1 to 10 nM | CCS(=O)(=O)c1ccc(CC(=O)Nc2ccc(C(=O)C(C)(C)c3ccc(C(F)(F)F)cn3)nc2)cc1 [Compound I-25, 2-(4-(ethylsulfonyl)phenyl)-N-(6-(2-methyl-2-(5-(trifluoromethyl)pyridin-2-yl)propionyl)pyridin-3-yl)acetamide]
24 | 10 to 50 nM | CCS(=O)(=O)c1ccc(CC(=O)Nc2ccc(C(=O)C(C)(C)c3cnn(C)c3)nc2)cc1 [Compound I-23, 2-(4-(ethylsulfonyl)phenyl)-N-(6-(2-methyl-2-(1-methyl-1H-pyrazol-4-yl)propionyl)pyridin-3-yl)acetamide]
25 | 10 to 50 nM | CCS(=O)(=O)c1ccc(CC(=O)Nc2ccc(C(=O)C3(c4ccccn4)CCC3)nc2)cc1 [Compound I-46, 2-(4-(ethylsulfonyl)phenyl)-N-(6-(1-(pyridin-2-yl)cyclobutane-1-carbonyl)pyridin-3-yl)acetamide]
26 | 10 to 50 nM | CCS(=O)(=O)c1ccc(CC(=O)Nc2ccc(C(=O)C(C)(C)c3cnn(CC(F)(F)F)c3)nc2)cc1 [Compound I-33, 2-(4-(ethylsulfonyl)phenyl)-N-(6-(2-methyl-2-(1-(2,2,2-trifluoroethyl)-1H-pyrazol-4-yl)propionyl)pyridin-3-yl)acetamide]
27 | 50 to 100 nM | CCS(=O)(=O)c1ccc(CC(=O)Nc2ccc(C(=O)C(C)(C)c3ccc(C)nc3)nc2)cc1 [Compound I-48, 2-(4-(ethylsulfonyl)phenyl)-N-(6-(2-methyl-2-(6-methylpyridin-3-yl)propionyl)pyridin-3-yl)acetamide]
28 | 1 to 10 nM | CCS(=O)(=O)c1ccc(CC(=O)Nc2ccc(C(=O)C3(c4ccccn4)CC(F)(F)C3)nc2)cc1 [Compound I-54, N-(6-(3,3-difluoro-1-(pyridin-2-yl)cyclobutane-1-carbonyl)pyridin-3-yl)-2-(4-(ethylsulfonyl)phenyl)acetamide]
29 | 1 to 10 nM | CCS(=O)(=O)c1ccc(CC(=O)Nc2ccc(C(=O)C(C)(C)c3cccc(Br)c3)nc2)cc1 [Compound I-10, N-[6-[2-(3-bromophenyl)-2-methylpropionyl]-3-pyridyl]-2-(4-ethylsulfonylphenyl)acetamide]
30 | 1 to 10 nM | CCS(=O)(=O)c1ccc(CC(=O)Nc2ccc(C(=O)C(C)(C)c3cc(Cl)cc(C#N)c3)nc2)cc1 [Compound I-27, N-(6-(2-(3-chloro-5-cyanophenyl)-2-methylpropionyl)pyridin-3-yl)-2-(4-(ethylsulfonyl)phenyl) acetamide]
31 | 10 to 50 nM | CCS(=O)(=O)c1ccc(CC(=O)Nc2ccc(C(=O)C(C)(C)c3cccnc3)nc2)cc1 [Compound I-7, 2-(4-(ethylsulfonyl)phenyl)-N-(6-(2-methyl-2-(pyridin-3-yl)propanoyl)pyridin-3-yl)acetamide]
32 | 1 to 10 nM | CCS(=O)(=O)c1ccc(CC(=O)Nc2ccc(C(=O)C(C)(C)c3ccc(Cl)cn3)nc2)cc1 [Compound I-31]
